Where two headings read alike, the source gives them in different places.
Key:
PDE V = PDE V (Oryctolagus cuniculus, UniProt G1SX67); assay: Measurement of Inhibition of PDE V (cyclic nucleotide phosphodiesterase assay); type: biochemical, rabbit; conditions: for IC50: 1 μM cGMP or cAMP, pH 7.4, 30° C., 30 minutes, 10% DMSO, read-out: Activity IC50 (PDEV inhibitory activity); for inhibition at 20 µM / inhibition at 10 µM: read-out: Activity Inhibition % at (conc. μM)
erectile dysfunction [1] = conditions: cited from earlier work
erectile dysfunction [2] = conditions: cited from earlier work; remark: listed apart in the source

Structure (SMILES) | IC50 (PDE V) [nM] | inhibition at 10 µM (PDE V) [%] | also measured
CCCc1nn(C)c2c(=O)[nH]c(-c3sccc3OCC)nc12 [Compound 4, 5-(3-Ethoxythiophene-2-yl)-1-methyl-3-n-propyl-6,7-dihydro-1H-pyrazolo-[4,3-d]pyrimidin-7-one] | 470 | – | –
CCCc1nn(C)c2c(=O)[nH]c(-c3sc(S(=O)(=O)N4CCN(C)CC4)cc3OCC)nc12 [Compound 5, 5-[3-Ethoxy-5-(4-methylpiperazinylsulfonyl)-thiophene-2-yl]-1-methyl-3-n-propyl-6,7-dihydro-1H-pyrazolo-[4,3-d]pyrimidin-7-one] | 8000 | – | –
CCCc1nn(C)c2c(=O)[nH]c(-c3sc(S(=O)(=O)N4CCN(C)CC4)cc3O)nc12 [Compound 6, 5-[3-hydroxy-5-(4-methylpiperazinylsulfonyl)-thiophene-2-yl]-1-methyl-3-n-propyl-6,7-dihydro-1H-pyrazolo-[4,3-d]pyrimidin-7-one] | 10000 | – | –
CCCc1nn(C)c2c(=O)[nH]c(-c3cc4cccc(OCC)c4o3)nc12 [Compound 7, 5-(7-Ethoxybenzofuran-2-yl)-1-methyl-3-n-propyl-6,7-dihydro-1H-pyrazolo-[4,3-d]pyrimidin-7-one] | 910 | – | –
CCCc1nn(C)c2c(=O)[nH]c(-c3cc4c(S(=O)(=O)N5CCN(C)CC5)ccc(OCC)c4o3)nc12 [Compound 8] | 5400 | – | –
CCCc1nn(C)c2c(=O)[nH]c(-c3cc4c(S(=O)(=O)N5CCN(C)CC5)cc(S(=O)(=O)N5CCN(C)CC5)c(OCC)c4o3)nc12 [Compound 9] | – | – | inhibition at 20 µM (PDE V): 6%
CCCc1nn(C)c2c(=O)[nH]c(-c3cccn3C)nc12 [Compound 10] | 3500 | – | –
CCCc1nn(C)c2c(=O)[nH]c(-c3cc(S(=O)(=O)N4CCN(C)CC4)cn3C)nc12 [Compound 11] | – | 31 | –
CCCc1nn(C)c2c(=O)[nH]c(-c3sc(S(=O)(=O)N4CCN(c5ncccn5)CC4)cc3OCC)nc12 [Compound 12] | 1200 | – | –
CCCc1nn(C)c2c(=O)[nH]c(-c3sc(S(=O)(=O)N4CCN(Cc5ccccc5)CC4)cc3OCC)nc12 [Compound 13] | – | – | inhibition at 20 µM (PDE V): 46%
CCCc1nn(C)c2c(=O)[nH]c(-c3sc(S(=O)(=O)N4CCN(Cc5ccccc5)CC4)cc3O)nc12 [Compound 14] | – | – | inhibition at 20 µM (PDE V): 18%
CCCc1nn(C)c2c(=O)[nH]c(-c3sc(S(=O)(=O)N4CCN(c5ncccn5)CC4)cc3O)nc12 [Compound 15] | – | – | inhibition at 20 µM (PDE V): 13%
CCCc1nn(C)c2c(=O)[nH]c(-c3sc(S(=O)(=O)N4CCN(c5ccccc5)CC4)cc3OCC)nc12 [Compound 16] | – | 19 | –
CCCc1nn(C)c2c(=O)[nH]c(-c3sc(S(=O)(=O)N4CCN(c5ccccc5)CC4)cc3O)nc12 [Compound 17] | – | 28 | –
CCCc1nn(C)c2c(=O)[nH]c(-c3sc(S(=O)(=O)N4CCN(C/C=C/c5ccccc5)CC4)cc3OCC)nc12 [Compound 18] | – | 44 | –
CCCc1nn(C)c2c(=O)[nH]c(-c3sc(S(=O)(=O)N4CCN(C/C=C/c5ccccc5)CC4)cc3O)nc12 [Compound 19] | – | 27 | –
CCCc1nn(C)c2c(=O)[nH]c(-c3sc(S(=O)(=O)N4CCN(C(N)=O)CC4)cc3OCC)nc12 [Compound 20] | 950 | – | –
CCCc1nn(C)c2c(=O)[nH]c(-c3sc(S(=O)(=O)N4CCN(C(N)=O)CC4)cc3O)nc12 [Compound 21] | – | 30 | –
CCCc1nn(C)c2c(=O)[nH]c(-c3sc(S(=O)(=O)N(C)C)cc3OCC)nc12 [Compound 22] | 1400 | – | –
CCCCC[C@H](O)/C=C/[C@H]1[C@H](O)CC(=O)[C@@H]1CCCCCCC(=O)O [alprostadil] | – | – | side effects (erectile dysfunction [1]; in vivo): priapism, fibrosis, penile pain and hematoma at the injection site
COc1ccc(Cc2nccc3cc(OC)c(OC)cc23)cc1OC [papaverine] | – | – | side effects (erectile dysfunction [1]; direct intracavernosal or intraurethral injection): priapism, fibrosis, penile pain and hematoma at the injection site
Cc1ccc(N(CC2=NCCN2)c2cccc(O)c2)cc1 [phentolamine] | – | – | side effects (erectile dysfunction [1]; in vivo): priapism, fibrosis, penile pain and hematoma at the injection site
CCCc1nn(C)c2c(=O)[nH]c(-c3cc(S(=O)(=O)N4CCN(C)CC4)ccc3OCC)nc12 [sildenafil, 5-[2-ethoxy-5-(4-methylpiperazin-1-ylsulphonyl)phenyl]-1-methyl-3-n-propyl-6,7-dihydro-1H-pyrazolo[4,3-d]pyrimidin-7-one] | – | – | improved sexual function in men who suffer from ED (erectile dysfunction [2]; ED of psychogenic or organic etiology, share of men): about 70%; patients with improved erections (erectile dysfunction [2]; patients who had undergone a radical prostatectomy, versus 15% on placebo): 43%; undesirable side effects (erectile dysfunction [2]; use of sildenafil): headache, flushing and disrupted color vision

Further lines, with some results ahead:

IC50 (PDE V) [nM] | inhibition at 10 µM (PDE V) [%] | Structure (SMILES) | also measured
– | 30 | CCCc1nn(C)c2c(=O)[nH]c(-c3sc(S(=O)(=O)N(C)C)cc3O)nc12 [Compound 23] | –
2300 | – | CCCc1nn(C)c2c(=O)[nH]c(-c3sc(S(=O)(=O)N4CCN(CC)CC4)cc3OCC)nc12 [Compound 24] | –
– | 26 | CCCc1nn(C)c2c(=O)[nH]c(-c3sc(S(=O)(=O)N4CCN(CC)CC4)cc3O)nc12 [Compound 25] | –
4900 | – | CCCc1nn(C)c2c(=O)[nH]c(-c3sc(S(=O)(=O)N(C)CCN(C)C)cc3OCC)nc12 [Compound 26] | –
– | 32 | CCCc1nn(C)c2c(=O)[nH]c(-c3sc(S(=O)(=O)N(C)CCN(C)C)cc3O)nc12 [Compound 27] | –
1600 | – | CCCc1nn(C)c2c(=O)[nH]c(-c3cccs3)nc12 [Compound 28] | –
8300 | – | CCCc1nn(C)c2c(=O)[nH]c(-c3sc(S(=O)(=O)N4CCC(N(C)C)CC4)cc3OCC)nc12 [Compound 29] | –
– | 33 | CCCc1nn(C)c2c(=O)[nH]c(-c3sc(S(=O)(=O)N4CCN(C5CCCCC5)CC4)cc3OCC)nc12 [Compound 30] | –
– | 31 | CCCc1nn(C)c2c(=O)[nH]c(-c3sc(S(=O)(=O)N4CCN(C5CCCCC5)CC4)cc3O)nc12 [Compound 31] | –
– | 31 | CCCc1nn(C)c2c(=O)[nH]c(-c3cc(S(=O)(=O)N4CCN(c5ncccn5)CC4)cn3C)nc12 [Compound 32] | –
